# Data taken from patent publication US9938273B2 (Plexxikon Inc., priority 2015, dated 2018).
# Tests used:
# FLT3-D835Y = target: T1, FLT3-D835Y (Homo sapiens, UniProt P36888, D835Y); test: AlphaScreen kinase assay with recombinant enzyme, FLT3-D835Y; format: biochemical; conditions: 8pt, GMean
# T1 construct: purchased Invitrogen PV3967
# T1 sequence (P36888 27-993 D835Y): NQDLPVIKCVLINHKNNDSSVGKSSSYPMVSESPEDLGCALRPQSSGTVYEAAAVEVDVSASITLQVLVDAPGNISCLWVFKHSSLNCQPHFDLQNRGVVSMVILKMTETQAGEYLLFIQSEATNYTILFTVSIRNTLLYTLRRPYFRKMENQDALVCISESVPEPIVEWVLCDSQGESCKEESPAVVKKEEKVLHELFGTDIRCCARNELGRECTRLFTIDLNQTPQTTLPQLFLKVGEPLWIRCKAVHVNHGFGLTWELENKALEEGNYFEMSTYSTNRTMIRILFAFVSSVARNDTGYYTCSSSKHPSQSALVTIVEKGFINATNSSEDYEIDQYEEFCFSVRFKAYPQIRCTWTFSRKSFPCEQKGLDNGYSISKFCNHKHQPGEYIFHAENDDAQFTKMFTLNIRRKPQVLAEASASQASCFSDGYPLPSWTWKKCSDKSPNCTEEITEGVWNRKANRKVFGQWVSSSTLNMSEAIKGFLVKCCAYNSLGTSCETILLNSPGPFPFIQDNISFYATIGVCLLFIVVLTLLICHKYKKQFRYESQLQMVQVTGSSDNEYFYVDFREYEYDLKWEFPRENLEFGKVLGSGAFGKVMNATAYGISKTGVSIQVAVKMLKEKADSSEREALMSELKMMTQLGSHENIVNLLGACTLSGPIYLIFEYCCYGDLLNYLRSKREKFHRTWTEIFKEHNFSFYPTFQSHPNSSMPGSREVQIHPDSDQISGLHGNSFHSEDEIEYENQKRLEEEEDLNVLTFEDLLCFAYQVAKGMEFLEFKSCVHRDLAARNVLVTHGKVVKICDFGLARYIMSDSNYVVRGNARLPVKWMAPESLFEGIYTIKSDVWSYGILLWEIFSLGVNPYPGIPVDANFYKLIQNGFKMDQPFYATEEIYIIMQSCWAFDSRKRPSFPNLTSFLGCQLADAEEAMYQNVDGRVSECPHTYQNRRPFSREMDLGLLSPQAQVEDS
# Outline: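 Tyrosine phosphorylation of biotin-poly(Glu4-Tyr) substrate by recombinant enzyme is detected with PY20 acceptor and streptavidin donor beads after room-temperature incubations of 20 and 60 min. IC50 values were derived at a final 10 μM (FLT3-D835Y, FLT3-ITD) or 100 μM (c-KIT).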
# [1] = test system: MOLM-14 F691L cells, FLT3 ITD and FLT3 F691L; test: Cell proliferation assay (CellTiter-Glo), MOLM-14 F691L; format: cell-based; conditions: Homo sapiens, 72 h, 3d-Growth, GMean
# Outline: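 Three-day growth at 37 °C, 5% CO2 under compound (1 μM top final, 1:3 dilutions, eight points, 0.2% DMSO), read as ATP luminescence by CellTiter-Glo for IC50. Cells: MOLM-14 with FLT3 ITD plus D835Y or F691L, and IL-3-deprived Ba/F3 transfected with FLT3 ITD/D835Y, 1×10^4 per well.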
IC50 (FLT3-D835Y) [µM],IC50 [1] [µM],SMILES
0.0001 to 10,0.0001 to 10,"CC(C)(C#N)NC(=O)c1cccc(-c2cnc3[nH]c(-c4ccc(C5CC5)nc4)cc3c2)n1 [Compound P-0168, N-(1-cyano-1-methyl-ethyl)-6-[2-(6-cyclopropyl-3-pyridyl)-1H-pyrrolo[2,3-b]pyridin-5-yl]pyridine-2-carboxamide]"
0.0001 to 10,0.0001 to 10,"Cc1nc(C(C)C)sc1-c1cc2cc(-c3cccc(C(=O)NC(C)(C)C#N)n3)cnc2[nH]1 [Compound P-0169, N-(1-cyano-1-methyl-ethyl)-6-[2-(2-isopropyl-4-methyl-thiazol-5-yl)-1H-pyrrolo[2,3-b]pyridin-5-yl]pyridine-2-carboxamide]"
0.0001 to 10,0.0001 to 10,"CC(C)(C#N)NC(=O)c1cccc(-c2cnc3[nH]c(-c4cnn(CCC#N)c4)cc3c2)n1 [Compound P-0170, 6-[2-[1-(2-cyanoethyl)pyrazol-4-yl]-1H-pyrrolo[2,3-b]pyridin-5-yl]-N-(1-cyano-1-methyl-ethyl)pyridine-2-carboxamide]"
0.0001 to 10,0.0001 to 10,"CC(C)(C#N)NC(=O)c1cccc(-c2cnc3[nH]c(-c4cnn(Cc5ccccc5)c4)cc3c2)n1 [Compound P-0171, 6-[2-(1-benzylpyrazol-4-yl)-1H-pyrrolo[2,3-b]pyridin-5-yl]-N-(1-cyano-1-methyl-ethyl)pyridine-2-carboxamide]"
0.0001 to 10,0.0001 to 10,"COCCn1cc(-c2cc3cc(-c4cccc(C(=O)NC(C)(C)C#N)n4)cnc3[nH]2)cn1 [Compound P-0172, N-(1-cyano-1-methyl-ethyl)-6-[2-[1-(2-methoxyethyl)pyrazol-4-yl]-1H-pyrrolo[2,3-b]pyridin-5-yl]pyridine-2-carboxamide]"
0.0001 to 10,0.0001 to 10,"CC(C)(C#N)NC(=O)c1cccc(-c2cnc3[nH]c(-c4cnn(C5CCOC5)c4)cc3c2)n1 (stereo not drawn) [Compound P-0173, N-(1-cyano-1-methyl-ethyl)-6-[2-(1-tetrahydrofuran-3-ylpyrazol-4-yl)-1H-pyrrolo[2,3-b]pyridin-5-yl]pyridine-2-carboxamide]"
0.0001 to 10,0.0001 to 10,"CC(C)(C#N)NC(=O)c1cccc(-c2cnc3[nH]c(-c4cnn(CCN5CCOCC5)c4)cc3c2)n1 [Compound P-0174, N-(1-cyano-1-methyl-ethyl)-6-[2-[1-(2-morpholinoethyl)pyrazol-4-yl]-1H-pyrrolo[2,3-b]pyridin-5-yl]pyridine-2-carboxamide]"
0.0001 to 10,0.0001 to 10,"CC(C)(C#N)NC(=O)c1cccc(-c2cnc3[nH]c(C#Cc4ccccc4)cc3c2)n1 [Compound P-0176, N-(1-cyano-1-methyl-ethyl)-6-[2-(2-phenylethynyl)-1H-pyrrolo[2,3-b]pyridin-5-yl]pyridine-2-carboxamide]"
0.0001 to 10,0.0001 to 10,"Cc1nn(C(C)C)cc1-c1cc2cc(-c3cccc(C(=O)NC(C)(C)C#N)n3)cnc2[nH]1 [Compound P-0178, N-(1-cyano-1-methyl-ethyl)-6-[2-(1-isopropyl-3-methyl-pyrazol-4-yl)-1H-pyrrolo[2,3-b]pyridin-5-yl]pyridine-2-carboxamide]"
0.0001 to 10,0.0001 to 10,"CC(C)(C#N)NC(=O)c1cccc(-c2cnc3[nH]c(C4=CCSCC4)cc3c2)n1 [Compound P-0180, N-(1-cyano-1-methyl-ethyl)-6-[2-(3,6-dihydro-2H-thiopyran-4-yl)-1H-pyrrolo[2,3-b]pyridin-5-yl]pyridine-2-carboxamide]"
0.0001 to 10,0.0001 to 10,"CC(C)(C#N)NC(=O)c1cccc(-c2cnc3[nH]c(C4=CCN(C(=O)C5CC5)CC4)cc3c2)n1 [Compound P-0181, N-(1-cyano-1-methyl-ethyl)-6-[2-[1-(cyclopropanecarbonyl)-3,6-dihydro-2H-pyridin-4-yl]-1H-pyrrolo[2,3-b]pyridin-5-yl]pyridine-2-carboxamide]"
0.0001 to 10,0.0001 to 10,"CC(C)(C#N)NC(=O)c1cccc(-c2cnc3[nH]c(-c4cn[nH]c4)cc3c2)n1 [Compound P-0183, N-(1-cyano-1-methyl-ethyl)-6-[2-(1H-pyrazol-4-yl)-1H-pyrrolo[2,3-b]pyridin-5-yl]pyridine-2-carboxamide]"
0.0001 to 10,0.0001 to 10,"CC(C)(C#N)NC(=O)c1cccc(-c2cnc3[nH]c(-c4cnn(C5CCNCC5)c4)cc3c2)n1 [Compound P-0187, N-(1-cyano-1-methyl-ethyl)-6-[2-[1-(4-piperidyl)pyrazol-4-yl]-1H-pyrrolo[2,3-b]pyridin-5-yl]pyridine-2-carboxamide]"
0.0001 to 10,0.0001 to 10,"CC(C)(C#N)NC(=O)c1cccc(-c2cnc3[nH]c(C4=CCN(S(=O)(=O)C5CC5)CC4)cc3c2)n1 [Compound P-0188, N-(1-cyano-1-methyl-ethyl)-6-[2-(1-cyclopropylsulfonyl-3,6-dihydro-2H-pyridin-4-yl)-1H-pyrrolo[2,3-b]pyridin-5-yl]pyridine-2-carboxamide]"

SMILES,IC50 (FLT3-D835Y) [µM],IC50 [1] [µM]
"CC(C)(C#N)NC(=O)c1cccc(-c2cnc3[nH]c(C4=CCNCC4)cc3c2)n1 [Compound P-0182, N-(1-cyano-1-methyl-ethyl)-6-[2-(1,2,3,6-tetrahydropyridin-4-yl)-1H-pyrrolo[2,3-b]pyridin-5-yl]pyridine-2-carboxamide]",0.0001 to 10,0.0001 to 10
